Target: T1, human PDE5 (Homo sapiens, UniProt O76074)
T1 construct: from tissue; host or cells: platelets from fresh blood of human donors (lysate, 10,000 g supernatant)
Experiment: Inhibition of the type 5 phosphodiesterase (PDE5) activity, modified SPA test with platelet lysate
Format: biochemical
Settings: PDE5 from human platelet lysate, 0.5 μM cGMP
Summary of the method: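 SPA-based cGMP hydrolysis, [3H]cGMP tracer in 0.5 μM cGMP, by sonicated human platelet lysate; motapizone (1 μM) and a PDE2 inhibitor (10 nM) block other PDEs. Reaction 15 min at 37 °C after 5 min preincubation, quenched with beads containing IBMX. IC50 from concentration-effect curves.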

| Structure (SMILES) | IC50 [nM] |
| --- | --- |
| CCC(=O)N1CC(NC(=O)c2c[nH]c3c(-c4c(OCC5CC5)ccc5c4OCO5)ncnc23)C1 [Example 40, 4-(5-Cyclopropylmethoxy-benzo[1,3]dioxol-4-yl)-5H-pyrrolo[3,2-d]pyrimidine-7-carboxylic acid (1-propionyl-azetidin-3-yl)-amide] | 0.427 |
| CCCCOc1ccc2c(c1-c1ncnc3c(C(=O)NC4CCN(C(=O)CC)CC4)c[nH]c13)OCO2 [Example 144, 4-(5-Butoxy-benzo[1,3]dioxol-4-yl)-5H-pyrrolo[3,2-d]pyrimidine-7-carboxylic acid (1-propionyl-piperidin-4-yl)-amide] | 0.115 |
| COc1ccc(-c2ncnc3c(C(=O)N[C@H]4CC[C@@H](NC(=O)CO)CC4)c[nH]c23)c(OCC2CC2)c1 [Example 202, cis-4-(2-Cyclopropylmethoxy-4-methoxy-phenyl)-5H-pyrrolo[3,2-d]pyrimidine-7-carboxylic acid [4-(2-hydroxy-acetylamino)-cyclohexyl]-amide] | 0.741 |
| C[C@H](O)C(=O)N1CC(NC(=O)c2c[nH]c3c(-c4c(OCC5CC5)ccc5c4OCO5)ncnc23)C1 [Example 196, 4-(5-Cyclopropylmethoxy-benzo[1,3]dioxol-4-yl)-5H-pyrrolo[3,2-d]pyrimidine-7-carboxylic acid [1-((S)-2-hydroxy-propanoyl)azetidin-3-yl]-amide] | 0.759 |
| COCCOc1cc(OC)ccc1-c1ncnc2c(C(=O)N[C@H]3CC[C@H](NC(=O)COC)CC3)c[nH]c12 [Example 157, trans-4-[4-Methoxy-2-(2-methoxy-ethoxy)-phenyl]-5H-pyrrolo[3,2-d]pyrimidine-7-carboxylic acid [4-(2-methoxy-acetylamino)-cyclohexyl]-amide] | 15.5 |
| COc1ccc(OCC2CC2)c(-c2ncnc3c(C(=O)N[C@H]4CC[C@@H](NC(=O)C5(O)CC5)CC4)c[nH]c23)c1 [Example 209, cis-4-(2-Cyclopropylmethoxy-5-methoxy-phenyl)-5H-pyrrolo[3,2-d]pyrimidine-7-carboxylic acid {4-[(1-hydroxy-cyclopropanecarbonyl)-amino]-cyclohexyl}-amide] | 0.692 |
| COCC(=O)N[C@H]1CC[C@H](NC(=O)c2c[nH]c3c(-c4cc(F)ccc4OCC4CC4)ncnc23)CC1 [Example 89, trans-4-(2-Cyclopropylmethoxy-5-fluoro-phenyl)-5H-pyrrolo[3,2-d]pyrimidine-7-carboxylic acid [4-(2-methoxy-acetylamino)-cyclohexyl]-amide] | 1.29 |
| O=C(NC1CCN(C(=O)CO)CC1)c1c[nH]c2c(-c3cc(F)ccc3OCC3CC3)ncnc12 [Example 220, 4-(2-Cyclopropylmethoxy-5-fluoro-phenyl)-5H-pyrrolo[3,2-d]pyrimidine-7-carboxylic acid [1-(2-hydroxy-acetyl)piperidin-4-yl]-amide] | 7.41 |
| CCCOc1ccc2c(c1-c1ncnc3c(C(=O)N[C@@H]4CCN(C(=O)CC)C4)c[nH]c13)OCO2 [Example 141, 4-(5-Propoxy-benzo[1,3]dioxol-4-yl)-5H-pyrrolo[3,2-d]pyrimidine-7-carboxylic acid ((R)-1-propionyl-pyrrolidin-3-yl)-amide] | 0.933 |
| COc1cc(-c2ncnc3c(C(=O)N[C@@H]4CCCN(C(C)=O)C4)c[nH]c23)c(OCC2CC2)cc1F [Example 100, 4-(2-Cyclopropylmethoxy-4-fluoro-5-methoxy-phenyl)-5H-pyrrolo[3,2-d]pyrimidine-7-carboxylic acid ((R)-1-acetyl-piperidin-3-yl)-amide] | 0.126 |
| O=C(N[C@H]1CC[C@H](NC(=O)C2(O)CC2)CC1)c1c[nH]c2c(-c3ccc(F)cc3OCC3CC3)ncnc12 [Example 219, trans-4-(2-Cyclopropylmethoxy-4-fluoro-phenyl)-5H-pyrrolo[3,2-d]pyrimidine-7-carboxylic acid {4-[(1-hydroxy-cyclopropanecarbonyl)-amino]-cyclohexyl}-amide] | 2 |

Further compounds by falling IC50, results first:

| IC50 [nM] | Structure (SMILES) |
| --- | --- |
| 6.03 | CCOc1ccc2c(c1-c1ncnc3c(C(=O)N[C@@H]4CCN(C(=O)COC)C4)c[nH]c13)OCO2 [Example 138] |
| 5.25 | CCOC(=O)N[C@H]1CC[C@@H](NC(=O)c2c[nH]c3c(-c4c(OCCOC)ccc5c4OCO5)ncnc23)CC1 [Example 167, cis-[4-({4-[5-(2-Methoxy-ethoxy)-benzo[1,3]dioxol-4-yl]-5H-pyrrolo[3,2-d]pyrimidine-7-carbonyl}-amino)-cyclohexyl]-carbamic acid ethyl ester] |
| 5.25 | COCCOc1ccc2c(c1-c1ncnc3c(C(=O)N[C@H]4CC[C@H](NC(C)=O)CC4)c[nH]c13)OCO2 [Example 161, trans-4-[5-(2-Methoxy-ethoxy)-benzo[1,3]dioxol-4-yl]-5H-pyrrolo[3,2-d]pyrimidine-7-carboxylic acid (4-acetylamino-cyclohexyl)-amide] |
| 4.79 | COCCOc1ccc2c(c1-c1ncnc3c(C(=O)N[C@H]4CC[C@H](NC(=O)CO)CC4)c[nH]c13)OCO2 [Example 260, trans-4-[5-(2-Methoxy-ethoxy)-benzo[1,3]dioxol-4-yl]-5H-pyrrolo[3,2-d]pyrimidine-7-carboxylic acid [4-(2-hydroxy-acetylamino)-cyclohexyl]-amide] |
| 2.51 | O=C(N[C@H]1CC[C@H](NC(=O)C2CC2)CC1)c1c[nH]c2c(-c3ccccc3OCC3CC3)ncnc12 [Example 93, trans-4-(2-Cyclopropylmethoxy-phenyl)-5H-pyrrolo[3,2-d]pyrimidine-7-carboxylic acid [4-(cyclopropanecarbonyl-amino)cyclohexyl]-amide] |
| 1.2 | O=C(N[C@@H]1CCN(C(=O)CO)C1)c1c[nH]c2c(-c3c(OCC4CC4)ccc4c3OCO4)ncnc12 [Example 180, 4-(5-Cyclopropylmethoxy-benzo[1,3]dioxol-4-yl)-5H-pyrrolo[3,2-d]pyrimidine-7-carboxylic acid [(R)-1-(2-hydroxy-ethanoyl)-pyrrolidin-3-yl]amide] |
| 1.1 | CCC(=O)N1CCC(NC(=O)c2c[nH]c3c(-c4ccc(F)cc4OCC4CC4)ncnc23)CC1 [Example 82, 4-(2-Cyclopropylmethoxy-4-fluoro-phenyl)-5H-pyrrolo[3,2-d]pyrimidine-7-carboxylic acid (1-propionyl-piperidin-4-yl)-amide] |
| 0.794 | CCC(=O)N1CCC[C@H](NC(=O)c2c[nH]c3c(-c4c(OCC5CC5)ccc5c4OCO5)ncnc23)C1 [Example 44, 4-(5-Cyclopropylmethoxy-benzo[1,3]dioxol-4-yl)-5H-pyrrolo[3,2-d]pyrimidine-7-carboxylic acid ((S)-1-propionyl-piperidin-3-yl)-amide] |
| 0.661 | COc1cc(OCC2CC2)c(-c2ncnc3c(C(=O)NC4CCN(C(C)=O)CC4)c[nH]c23)cc1F [Example 108, 4-(2-Cyclopropylmethoxy-5-fluoro-4-methoxy-phenyl)-5H-pyrrolo[3,2-d]pyrimidine-7-carboxylic acid (1-acetyl-piperidin-4-yl)-amide] |
| 0.468 | COCC(=O)N[C@H]1CC[C@@H](NC(=O)c2c[nH]c3c(-c4ccc(OC)cc4OCC4CC4)ncnc23)CC1 [Example 57, cis-4-(2-Cyclopropylmethoxy-4-methoxy-phenyl)-5H-pyrrolo[3,2-d]pyrimidine-7-carboxylic acid [4-(2-methoxy-acetylamino)-cyclohexyl]-amide] |
| 0.437 | COc1ccc(OCC2CC2)c(-c2ncnc3c(C(=O)NC4CCN(C(=O)C5CC5)CC4)c[nH]c23)c1 [Example 72, 4-(2-Cyclopropylmethoxy-5-methoxy-phenyl)-5H-pyrrolo[3,2-d]pyrimidine-7-carboxylic acid (1-cyclopropanecarbonyl-piperidin-4-yl)-amide] |
| 0.347 | CCOC(=O)N1CCC(NC(=O)c2c[nH]c3c(-c4c(OCC)ccc5c4OCO5)ncnc23)CC1 [Example 134, 4-{[4-(5-Ethoxy-benzo[1,3]dioxol-4-yl)-5H-pyrrolo[3,2-d]pyrimidine-7-carbonyl]-amino}-piperidine-1-carboxylic acid ethyl ester] |
| 0.339 | CCOC(=O)N1CC[C@@H](NC(=O)c2c[nH]c3c(-c4c(OCC5CC5)ccc5c4OCO5)ncnc23)C1 [Example 17, (R)-3-({1-[4-(5-Cyclopropylmethoxy-benzo[1,3]dioxol-4-yl)-5H-pyrrolo[3,2-d]pyrimidin-7-yl]-methanoyl}-amino)-pyrrolidine-1-carboxylic acid ethyl ester] |
| 0.316 | COc1cc(OCC2CC2)c(-c2ncnc3c(C(=O)NC4CCN(C(=O)C5(O)CC5)CC4)c[nH]c23)cc1F [Example 238, 4-(2-Cyclopropylmethoxy-5-fluoro-4-methoxy-phenyl)-5H-pyrrolo[3,2-d]pyrimidine-7-carboxylic acid {1-[1-(1-hydroxy-cyclopropyl)methanoyl]-piperidin-4-yl}-amide] |
| 0.282 | O=CN1CCC(NC(=O)c2c[nH]c3c(-c4c(OCC5CC5)ccc5c4OCO5)ncnc23)CC1 [Example 43, 4-(5-Cyclopropylmethoxy-benzo[1,3]dioxol-4-yl)-5H-pyrrolo[3,2-d]pyrimidine-7-carboxylic acid (1-formyl-piperidin-4-yl)-amide] |
| 0.191 | CCOC(=O)N1CC(NC(=O)c2c[nH]c3c(-c4c(OCC5CC5)ccc5c4OCO5)ncnc23)C1 [Example 42, 3-({1-[4-(5-Cyclopropylmethoxy-benzo[1,3]dioxol-4-yl)-5H-pyrrolo[3,2-d]pyrimidin-7-yl]-methanoyl}-amino)-azetidine-1-carboxylic acid ethyl ester] |
| 0.141 | COCC(=O)N[C@H]1CC[C@H](NC(=O)c2c[nH]c3c(-c4c(OCC5CC5)ccc5c4OCO5)ncnc23)CC1 [Example 50, trans-4-(5-Cyclopropylmethoxy-benzo[1,3]dioxol-4-yl)-5H-pyrrolo[3,2-d]pyrimidine-7-carboxylic acid [4-(2-methoxy-acetylamino)-cyclohexyl]-amide] |

Source: US8445501B2, “Substituted 7-carboxamido-pyrrolo[3,2-d]pyrimidines” (Takeda GmbH, priority 2008, dated 2013)
